Assay [1] deals with Calu-6 lung xenograft. The experiment in a line: Single Agent Efficacy Dosing, Calu-6 xenograft. It counts as in vivo, mouse. As to conditions: Calu-6, 15 mg/kg SC, BID×5 rest 2 days ×3 cycles. On the procedure:
The ability of CHK1 inhibitors to effect tumor killing can be determined in vivo using the Calu-6 lung xenograft efficacy model. Calu-6 lung cancer cells (ATCC) are cultured as described above. Cells are harvested and washed twice with phosphate buffered saline and 1×10^6 cells (Calu-6) in growth media (without serum) are mixed with equal volume of BD Matrigel™ matrix (BD Bioscience, Franklin, NJ), then injected subcutaneously into the flank of nude mice (CD-1 nu/nu, from Charles River Labs, Wilmington, MA).

For assay [2], the system named is Thirty solid tumor cell lines from 13 tumor histotypes. The experiment in a line: Monolayer Proliferation and Cytotoxicity Assay (Oncotest, modified PI assay). It counts as cell-based. Conditions: 96 h, 4 days of treatment, PI fluorescence, read-out: EC50, growth inhibition of the majority of the tumor cell lines. The source says: One measure of potency of a CHK1 inhibitor is its ability to inhibit the proliferation of cancer cells in culture due to uncontrolled replication origin activation. (Conti et al. Cell Cycle 6: 2760-2767, 2007) Determination of CHK1 inhibitor antiproliferative activity in cell lines derived from a broad range of tumor types is indicative of which tumor types may be clinically responsive to chemotherapy with CHK1 inhibitors. The following described cellular proliferation assay is run at Oncotest, GmbH in Germany. Thirty solid tumor cell lines are derived from 13 different tumor histotypes, each represented by 1 to 6 different cell lines (Oncotest, GmbH). […] Briefly, adherent cells are harvested from exponential phase cultures by trypsinization, counted and plated in 96 well flat-bottomed microtiter plates at a cell density depending on the cell line (4.000-20.000 cells/well). […] Finally, PI fluorescence is measured using the Cytofluor 4000 microplate reader (excitation k=530 nm, emission k=620 nm) to determine the total viable cell number. Growth inhibition is expressed as Test/Control×100 (% T/C) values. Based on the T/C values, relative IC50 values are determined using non-linear regression (log[conc. of inhibitor] versus response (% T/C)).

Assay [3] concerns CTG-0142 EWS patient-derived xenograft. The experiment in a line: Xenograft Tumor Model CTG-0142. It counts as in vivo, mouse. Conditions: comparator day 28, p-value 0.376. The protocol: (§1) The efficacy of 5-(5-(2-(3-aminopropoxy)-6-methoxyphenyl)-1H-pyrazol-3-ylamino)pyrazine-2-carbonitrile methanesulfonic acid monohydrate is measurable in vivo in mouse models of neuroblastomas and human pediatric and adult sarcomas. 5-(5-(2-(3-Aminopropoxy)-6-methoxyphenyl)-1H-pyrazol-3-ylamino)pyrazine-2-carbonitrile methanesulfonic acid monohydrate (10 mg/kg) can be administered subcutaneously to nude mice bearing either cell-derived xenografts (CDX) or patient-derived xenografts (PDX) of human rhabdomyosarcoma, desmoplastic small round cell tumor (DSRCT), osteosarcoma, and Ewing's sarcoma using a 3 day on, 4 day off b.i.d. dosing schedule. Tumor volume and body weight can be measured two times per week. Tumor-specific parameters can be evaluated by immumohistochemistry. […]
(§2) For all “ST” models (encompassing RMS and LMS), patient-derived xenografts are established from viable human tumor tissue and are serially passaged in animals a limited number of times to maintain tumor heterogeneity. […] Tumor response is determined by tumor volume measurement performed twice per week during the course of treatment.

Assay [4] relates to CTG-1213 RMS patient-derived xenograft. Briefly: Xenograft Tumor Model CTG-1213. It counts as in vivo, mouse. The protocol:
as §1, §2

Assay [5] concerns CTG-1006 LMS patient-derived xenograft. The experiment in a line: Xenograft Tumor Model CTG-1006. Format: in vivo, mouse. As to conditions: comparator day 27, p-value <0.001. The text has this: (§3) For all “CTG” models (encompassing human RMS, DSRCT, EWS, OS and LMS patient-derived xenograft models), female NCr nude spontaneous mutant mice (5-8 weeks old, Taconic) are implanted unilaterally in the flank region with tumor fragments harvested from donor animals, each implanted from a specific passage lot.
(§4) For all “ST” models (encompassing RMS and LMS), patient-derived xenografts are established from viable human tumor tissue and are serially passaged in animals a limited number of times to maintain tumor heterogeneity. In subcutaneous models, athymic nude mice (Crl:NU(NCr)-Foxn1nu) or CB-17 SCID mice (CRL-CB17/Icr-Prkdcscid/IcrIcoCrl) are injected or implanted unilaterally into the flank with tumor fragments harvested from host animals, each implanted from a specific passage lot. For all studies, measure tumor growth and body weight twice per week beginning on the seventh day after implantation. When tumor size reaches 150-300 mm^3, randomize animals and group into groups of 4-7 animals. Prepare test compound in an appropriate vehicle (e.g. vehicle can be 20% Captisol® in sterile water) and administer subcutaneously for three consecutive days followed by a four day dosing holiday and repeat for a minimum of four weeks. Tumor response is determined by tumor volume measurement performed twice per week during the course of treatment.

In assay [6] the test system is Ewing's Sarcoma xenograft models. Briefly: Sarcoma xenograft models by tumor subtype: Ewing's Sarcoma. It counts as in vivo, mouse. As to conditions: age of patients 8-17 years. On the procedure: as §1, §2
The test system of assay [7] is Osteosarcoma xenograft models. Briefly: Sarcoma xenograft models by tumor subtype: Osteosarcoma. Format: in vivo, mouse. As to conditions: age of patients 11-19 years. The protocol: as §1, §2
The test system of assay [8] is Alveoloar Rhabdomyosarcoma xenograft models. The experiment in a line: Sarcoma xenograft models by tumor subtype: Alveolar Rhabdomyosarcoma. It counts as in vivo, mouse. Conditions: age of patients 17-24 years. The protocol:
The efficacy of 5-(5-(2-(3-aminopropoxy)-6-methoxyphenyl)-1H-pyrazol-3-ylamino)pyrazine-2-carbonitrile methanesulfonic acid monohydrate is measurable in vivo in mouse models of neuroblastomas and human pediatric and adult sarcomas. 5-(5-(2-(3-Aminopropoxy)-6-methoxyphenyl)-1H-pyrazol-3-ylamino)pyrazine-2-carbonitrile methanesulfonic acid monohydrate (10 mg/kg) can be administered subcutaneously to nude mice bearing either cell-derived xenografts (CDX) or patient-derived xenografts (PDX) of human rhabdomyosarcoma, desmoplastic small round cell tumor (DSRCT), osteosarcoma, and Ewing's sarcoma using a 3 day on, 4 day off b.i.d. dosing schedule. Tumor volume and body weight can be measured two times per week. Tumor-specific parameters can be evaluated by immumohistochemistry.
Expand human RMS cancer cells SJCRH-30 (St. Jude Children's Research Hospital) in culture, harvest, and inject 5×10^6 cells in 200 μL of HBSS subcutaneously into the right rear flank of female athymic nude mice (20-22 g, Harlan Laboratories). […]
as §2

Assay [9] has as its system adult sarcoma models. The experiment in a line: Adult sarcoma models evaluated in vivo (panel). Also on record: species or system mouse.
Excerpt: as §3, §4

Counter-ions that a name gives are not always drawn.

With `COc1cccc(OCCCN)c1-c1cc(Nc2cnc(C#N)cn2)n[nH]1` [Example 2, 5-(5-(2-(3-Aminopropoxy)-6-methoxyphenyl)-1H-pyrazol-3-ylamino)pyrazine-2-carbonitrile dihydrogen chloride salt], in [1], the “growth inhibition compared with gemcitabine plus compound combination schedule” value is “superior growth inhibition”; the tumor regression entry was “Complete tumor regression is rapid and durable”. Moreover, the concentration giving a half-maximal response (EC50) in assay [2] is less than 20 nM.
For the compound `COc1cccc(OCCCN)c1-c1cc(Nc2cnc(C#N)cn2)n[nH]1` [Example 5, 5-(5-(2-(3-Aminopropoxy)-6-methoxyphenyl)-1H-pyrazol-3-ylamino)pyrazine-2-carbonitrile methanesulfonic acid monohydrate], the “% T/C” value in assay [3] came to 66%; in [4] (comparator day 18, p-value 0.004), 18%. For the same compound, the “% Regression” value in assay [4] (comparator day 36, p-value <0.001) is −65%; in assay [5], −24%. Moreover, the “Result of Treatment: Stable Disease (models)” value in assay [6] and in assay [7] was 1/4 Stable Disease throughout. The “Result of Treatment: Complete Response (models)” value in assay [8] is 2/2 Complete. Further, in assay [9], the “adult sarcoma models sensitive to single agent treatment (models)” value is given as 10/12. Moreover, the “adult sarcoma models sensitive to single agent treatment (percent)” value in assay [9] was found to be 83%.

A word on the EC50: it is the concentration needed to bring the measured effect to its halfway point.
